From ChEMBL document CHEMBL1201862, “PubChem BioAssay data set” (2004)
Active and inactive are the calls of the source.

Legend:
[1] = molecular target: Mitogen-activated protein kinase 10 (Homo sapiens, UniProt P53779); test: Dose response biochemical screening assay for inhibitors of c-Jun N-Terminal Kinase 3 (JNK3). [Related pubchem assays: 746 ]
[2] = molecular target: T1, Endoribonuclease toxin MazF (Escherichia coli K-12, UniProt P0AE70); test: MazF toxin RNase activators, dose response, biochemical, fluorescence, single-stranded RNA substrate, uHTS hits (AID 588481); assay type: functional
T1 sequence (P0AE70 whole entry): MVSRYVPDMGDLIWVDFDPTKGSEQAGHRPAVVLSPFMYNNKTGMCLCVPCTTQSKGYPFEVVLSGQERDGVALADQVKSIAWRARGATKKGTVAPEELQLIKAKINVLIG

[3] = molecular target: T1, Endoribonuclease toxin MazF; test: fluorescent RNA oligo signal without MazF, dose response, counter-screen for MazEF activator project, biochemical, fluorescence, single-stranded RNase substrate (AID 588502); assay type: functional
[4] = Luminescence Cell-Based Dose Retest to Confirm Inhibitors of Cancer Stem Cells. [Related pubchem assays (depositor defined):AID2717, AID2721]; assay type: functional; conditions: Homo sapiens
[5] = test system: H9c2; test: cells; assay type: functional, cell-based; conditions: Rattus norvegicus, H9c2, Myocardium;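 further: confirmatory concentration-response retest of ultra-high-throughput screening hits for modulation of myocardial damage; cell death induced by hydrogen peroxide oxidative stress; compound pretreatment for 60 min then peroxide exposure for 2 h; potency is for protecting the cells against peroxide damage rather than for killing them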
[6] = P. falciparum 3D7-ScDHODH growth inhibitors, dose response, SYBR Green, dry powder samples (AID 1159570); assay type: functional, cell-based;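 further: parasite growth measured after 72 hours of compound exposure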
[7] = HepG2 cell cytotoxicity, dose response, cytotoxicity control, plate reader, dry powder samples (AID 1159569); assay type: functional, cell-based;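 further: inhibitor potency with signal falling toward the positive control level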
[8] = P. falciparum Dd2 growth inhibitors, dose response, SYBR Green, cherry-picked samples (AID 1159567); assay type: functional, cell-based
[9] = P. falciparum Dd2 growth inhibitors, dose response, SYBR Green, dry powder samples (AID 1159566); assay type: functional, cell-based;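 further: potency for growth inhibition with lower SYBR green DNA signal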
[10] = P. falciparum ATP4 D1247Y mutant growth inhibitors, dose response, NITD609-resistant line, SYBR Green, dry powder (AID 1159571); assay type: functional, cell-based;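 further: parasites synchronized at ring stage by sorbitol before testing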
[11] = molecular target: T2, High affinity choline transporter 1 (Homo sapiens, UniProt Q9GZV3); test: CHT inhibitors, dose response, cell-based, 5-point CRC, membrane potential dye (AID 504840); assay type: functional
T2 sequence (Q9GZV3 whole entry): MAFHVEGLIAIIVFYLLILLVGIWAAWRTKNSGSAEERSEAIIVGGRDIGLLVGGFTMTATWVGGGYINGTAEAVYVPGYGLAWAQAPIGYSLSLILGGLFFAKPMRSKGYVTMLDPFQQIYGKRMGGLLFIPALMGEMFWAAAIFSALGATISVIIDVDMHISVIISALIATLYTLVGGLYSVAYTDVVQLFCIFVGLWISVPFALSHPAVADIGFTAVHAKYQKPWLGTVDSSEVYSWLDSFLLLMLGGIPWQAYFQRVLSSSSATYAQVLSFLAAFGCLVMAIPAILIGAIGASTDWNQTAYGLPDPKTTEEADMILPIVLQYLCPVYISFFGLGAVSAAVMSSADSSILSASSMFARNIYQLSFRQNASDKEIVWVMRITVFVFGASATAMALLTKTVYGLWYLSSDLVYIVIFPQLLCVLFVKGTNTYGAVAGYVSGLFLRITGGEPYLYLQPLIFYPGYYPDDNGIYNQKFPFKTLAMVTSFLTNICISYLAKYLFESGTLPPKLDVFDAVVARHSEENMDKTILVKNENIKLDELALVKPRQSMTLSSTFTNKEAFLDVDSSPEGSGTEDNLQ

[12] = molecular target: T3, DNA repair protein RAD52 homolog (Homo sapiens, UniProt P43351); assay type: functional, biochemical
T3 sequence (P43351 whole entry): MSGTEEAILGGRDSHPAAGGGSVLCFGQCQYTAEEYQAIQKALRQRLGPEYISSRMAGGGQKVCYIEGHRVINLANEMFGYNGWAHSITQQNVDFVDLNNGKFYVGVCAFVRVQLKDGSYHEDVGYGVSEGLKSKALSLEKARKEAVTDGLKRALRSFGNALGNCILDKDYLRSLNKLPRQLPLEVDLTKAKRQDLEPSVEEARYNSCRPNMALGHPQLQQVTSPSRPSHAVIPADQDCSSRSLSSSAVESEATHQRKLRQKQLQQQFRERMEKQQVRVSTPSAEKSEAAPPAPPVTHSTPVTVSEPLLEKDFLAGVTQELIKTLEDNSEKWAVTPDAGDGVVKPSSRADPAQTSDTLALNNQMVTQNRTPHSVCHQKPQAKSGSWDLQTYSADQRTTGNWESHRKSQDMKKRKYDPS

[13] = molecular target: Nuclear receptor subfamily 5 group A member 2 (Homo sapiens, UniProt O00482); assay type: functional, cell-based;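 further: HEK293T cells transfected with LRH-1 and a StAR promoter luciferase reporter; potency for inhibitors that lower LRH-1 driven reporter light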
[14] = molecular target: Steroidogenic factor 1 (Homo sapiens, UniProt Q13285); test: Counterscreen for inverse agonists of the liver receptor homolog-1 (LRH-1; NR5A2): Luminescence-based cell-based high throughput dose response assay to identify inverse agonists of the Steroidogenic Factor 1 Nuclear Receptor (SF1; NR5A1).; assay type: functional
[15] = StAR promoter reporter inhibition counter-screen, dose response, counter-screen for LRH-1 inverse agonist project, cell-based, luminescence, luciferase reporter (AID 651969); assay type: functional
[16] = intracellular Trypanosoma cruzi inhibitors in host cells – cell-based, plate reader, cherry-pick samples, set 3, dose response (AID 651818); assay type: functional;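 further: compounds incubated with infected cells for about four days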
[17] = inhibitors of intracellular T. cruzi replication, confirmation, NIH3T3 host cells, beta-gal luminescence (AID 2044); assay type: functional, cell-based;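 further: intracellular parasites grown in NIH/3T3 mouse fibroblasts as host cells; luminescent beta-galactosidase reporter signal from transgenic T. cruzi replicating inside host cells; inhibitors lower the luminescence signal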
[18] = cytotoxicity toward NIH3T3 fibroblasts, dose response, counter-screen, cell-based, ATP luminescence, mouse fibroblasts (AID 2010); assay type: functional;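 further: cells exposed to compound for about 90 hours before reading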

Chain of Nuclear receptor subfamily 5 group A member 2 (O00482 whole entry): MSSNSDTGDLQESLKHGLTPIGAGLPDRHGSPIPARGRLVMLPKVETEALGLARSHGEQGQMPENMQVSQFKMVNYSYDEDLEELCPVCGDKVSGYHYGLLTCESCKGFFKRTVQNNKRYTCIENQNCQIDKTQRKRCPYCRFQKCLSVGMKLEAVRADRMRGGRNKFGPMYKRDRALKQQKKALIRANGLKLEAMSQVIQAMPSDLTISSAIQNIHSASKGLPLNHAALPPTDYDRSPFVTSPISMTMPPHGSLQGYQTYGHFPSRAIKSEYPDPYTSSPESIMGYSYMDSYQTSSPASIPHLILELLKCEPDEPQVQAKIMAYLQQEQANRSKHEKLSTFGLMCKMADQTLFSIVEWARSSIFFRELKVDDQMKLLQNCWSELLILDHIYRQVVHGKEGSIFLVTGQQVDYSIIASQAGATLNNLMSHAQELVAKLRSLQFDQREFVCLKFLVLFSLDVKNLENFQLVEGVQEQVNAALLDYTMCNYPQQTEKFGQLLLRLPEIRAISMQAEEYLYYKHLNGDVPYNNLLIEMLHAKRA
Chain of Steroidogenic factor 1 (Q13285 whole entry): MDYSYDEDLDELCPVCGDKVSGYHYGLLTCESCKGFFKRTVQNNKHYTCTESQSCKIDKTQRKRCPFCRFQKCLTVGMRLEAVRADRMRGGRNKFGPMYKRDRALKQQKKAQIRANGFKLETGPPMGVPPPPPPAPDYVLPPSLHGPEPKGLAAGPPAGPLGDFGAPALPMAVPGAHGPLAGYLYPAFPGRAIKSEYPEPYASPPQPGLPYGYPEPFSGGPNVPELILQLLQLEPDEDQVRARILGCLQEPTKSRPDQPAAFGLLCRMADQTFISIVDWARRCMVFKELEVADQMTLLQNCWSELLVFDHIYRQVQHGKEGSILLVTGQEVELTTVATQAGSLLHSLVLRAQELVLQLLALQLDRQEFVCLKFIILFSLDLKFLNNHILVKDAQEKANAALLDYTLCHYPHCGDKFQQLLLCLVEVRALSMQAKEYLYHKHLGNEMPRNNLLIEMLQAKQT
Chain of Mitogen-activated protein kinase 10 (P53779 whole entry): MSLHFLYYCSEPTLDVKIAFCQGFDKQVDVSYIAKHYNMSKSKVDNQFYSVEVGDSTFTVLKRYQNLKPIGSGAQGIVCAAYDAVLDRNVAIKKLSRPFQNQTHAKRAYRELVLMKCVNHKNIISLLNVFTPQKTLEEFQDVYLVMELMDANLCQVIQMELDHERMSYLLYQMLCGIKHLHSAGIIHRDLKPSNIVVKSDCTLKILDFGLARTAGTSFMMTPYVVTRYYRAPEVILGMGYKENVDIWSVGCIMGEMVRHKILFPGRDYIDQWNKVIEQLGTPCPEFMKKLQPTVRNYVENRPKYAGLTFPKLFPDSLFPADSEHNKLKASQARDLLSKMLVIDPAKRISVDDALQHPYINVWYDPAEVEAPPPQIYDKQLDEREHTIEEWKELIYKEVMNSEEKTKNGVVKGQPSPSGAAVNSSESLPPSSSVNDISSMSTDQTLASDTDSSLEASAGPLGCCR

## CCOC(=O)C1=C(C)OC(N)=C(C#N)C1c1cc2ccccc2nc1N1CCCCC1 (stereo unspecified)
[1]
  IC50: > 93.1 µM (not active)

## COc1cc2c(cc1OC)C(/C=C(\O)c1ccc([N+](=O)[O-])c(C)c1)=NCC2
[2]
  EC50: > 99 µM (inactive)
[3]
  EC50: 43.8 µM (inactive)

## Cc1ccc(NC(=O)c2[nH]cnc2C(=O)NCCCNC(=O)c2nc[nH]c2C(=O)Nc2ccc(C)cc2)cc1
[4]
  AC50: 3.39 µM (active)
[5]
  IC50: > 79 µM (inactive)

## CO[C@H]1CN(C)C(=O)c2cc(NC(=O)C3CC3)ccc2OC[C@H](C)N(Cc2cc(F)ccc2F)C[C@H]1C
[6]
  AC50: 4.89 µM (active)
[7]
  AC50: 45.2 µM (active)
[8]
  AC50: 2.14 µM (active)
[9]
  AC50: 1.35 µM (active)
[10]
  AC50: 1.99 µM (active)

## CCN(CC)c1ccc(C(=O)NNC(=O)CCc2nc(O)c3ccccc3n2)cc1
[5]
  IC50: 18 µM (active)

## Cc1ccc(N/C=C2/C(=O)N(c3nccs3)C(=O)c3ccccc32)c(C)c1
[2]
  EC50: > 99 µM (inactive)
[3]
  EC50: > 99 µM (inactive)

## CCCCN(CCCC)CCNC(=O)c1cn(C)c2ccc(S(=O)(=O)N(C)C3CCCCC3)cc2c1=O
[11]
  IC50: 15.6 µM (active)

## OC(CN1CCCCC1)Cn1c2ccccc2c2cc(Br)ccc21 (stereo unspecified)
[12]
  AC50: 19 µM (active)

## CNS(=O)(=O)c1ccc2nc(NC(=O)/C=C/c3ccco3)sc2c1
[5]
  IC50: > 79 µM (inactive)

## OC[C@@H]1[C@@H](c2ccccc2)C2(CN(Cc3ccccc3F)C2)N1Cc1ccccc1F
[6]
  AC50: 2.31 µM (active)
[7]
  AC50: 35.8 µM (active)
[9]
  AC50: 1.65 µM (active)
[10]
  AC50: 1.94 µM (active)

## CCCc1cc(=O)oc2cc(C)cc(OCC(=O)Nc3ccccn3)c12
[13]
  IC50: 3.99 µM (active)
[14]
  IC50: 0.802 µM (active)
[15]
  IC50: 35.9 µM (inactive)

## C[C@H]1CN([C@@H](C)CO)C(=O)Cc2cc(NC(=O)Nc3ccc(C(F)(F)F)cc3)ccc2O[C@H]1CN(C)Cc1ccc(C(F)(F)F)cc1
[16]
  AC50: 4.47 µM (active)

## C[C@H](CO)N1C[C@H](C)[C@H](CN(C)C(=O)Nc2ccccc2)Oc2ncc(C#Cc3ccc(C(F)(F)F)cc3)cc2C1=O
[16]
  AC50: 1.37 µM (active)

## CC1=CC(=C2C(=O)c3ccccc3C2=O)C=C(C)N1Cc1ccco1
[1]
  IC50: 22.9 µM (not active)

## COc1ccc(C#Cc2ccc([C@H]3[C@H]4CN(C(=O)c5ccccc5)CC(=O)N4[C@H]3CO)cc2)cc1
[6]
  AC50: 3.84 µM (active)
[7]
  AC50: 23.5 µM (active)
[8]
  AC50: 2.52 µM (active)
[9]
  AC50: 2.26 µM (active)
[10]
  AC50: 2.13 µM (active)

## Cc1ccccc1Nc1nc(-c2cccnc2)nc2ccccc12
[17]
  EC50: 0.741 µM (active)
[18]
  EC50: > 60 µM (inconclusive)
[13]
  IC50: 15.5 µM (inactive)
[14]
  IC50: 12.6 µM (inactive)
[15]
  IC50: 24.9 µM (inactive)

## CC(=O)Nc1cc(Cl)c(/N=C/c2ccc(O)cc2O)cc1Cl
[2]
  EC50: > 99 µM (inactive)
[3]
  EC50: > 99 µM (inactive)

## Nc1ccc(C(=O)NN2C(=O)[C@H](Cl)C2c2ccc(Cl)cc2)cc1 (stereo partly specified)
[13]
  IC50: 11.9 µM (inactive)
[14]
  IC50: 11.7 µM (inactive)
[15]
  IC50: 28.8 µM (inactive)
